Data as given in ChEMBL document CHEMBL4825780 (ACS Med Chem Lett, 2021).
Activity calls are given as the source filed them. The calls are words filed in the database; no cut-off is given here.

Key:
[1] = target: Cyclin-dependent kinase 8 (Homo sapiens, UniProt P49336)
Description: Inhibition of human CDK8 in human Jurkat cells assessed as inhibition of STAT1 phosphorylation at S727 residue measured after 24 hrs by Western blot assay

CDK8/Cyclin C = CDK8/Cyclin C (Homo sapiens, UniProt P49336); assay: Inhibition of tracer 236 binding to recombinant human His-tagged full length CDK8/Cyclin C expressed in baculovirus expression system by Lanthascreen assay
[2] = target: Cyclin-C/Cyclin-dependent kinase 19 (Homo sapiens, UniProt Q9BWU1); assay: Inhibition of tracer 236 binding to recombinant human GST/His-tagged CDK11 (1 to 502 residues)/Cyclin C( 1 to 283 residues) expressed in insect cells by Lanthascreen assay
[3] = Metabolic stability in mouse hepatocytes assessed as half life; format: ADME, cell-based, Hepatocyte
[4] = Metabolic stability in mouse hepatocytes assessed as intrinsic clearance; format: ADME, cell-based, Hepatocyte
[5] = AUC in C57Bl/6 mouse at 10 mg/kg, po; format: ADME, organism-based; design: dose 10 mg/kg; settings: in vivo
[6] = Oral bioavailability in C57Bl/6 mouse at 10 mg/kg; format: ADME, organism-based; settings: in vivo
[7] = Half life in C57Bl/6 mouse at 10 mg/kg, po; format: ADME, organism-based; settings: in vivo
[8] = Cmax in C57Bl/6 mouse at 10 mg/kg, po; format: ADME, organism-based; design: route oral, dose 10 mg/kg; settings: in vivo
[9] = Clearance in C57Bl/6 mouse at 10 mg/kg, po or 2 mg/kg, iv; format: ADME, organism-based; settings: in vivo
[10] = test system: T1, Receptor-type tyrosine-protein kinase FLT3 (Homo sapiens), P36888 [D835V]; assay: Inhibition of human partial length FLT3 […] mutant (V592 to Y969 residues) expressed in mammalian expression system at 1 uM measured by Kinomescan method
T1 sequence (whole entry): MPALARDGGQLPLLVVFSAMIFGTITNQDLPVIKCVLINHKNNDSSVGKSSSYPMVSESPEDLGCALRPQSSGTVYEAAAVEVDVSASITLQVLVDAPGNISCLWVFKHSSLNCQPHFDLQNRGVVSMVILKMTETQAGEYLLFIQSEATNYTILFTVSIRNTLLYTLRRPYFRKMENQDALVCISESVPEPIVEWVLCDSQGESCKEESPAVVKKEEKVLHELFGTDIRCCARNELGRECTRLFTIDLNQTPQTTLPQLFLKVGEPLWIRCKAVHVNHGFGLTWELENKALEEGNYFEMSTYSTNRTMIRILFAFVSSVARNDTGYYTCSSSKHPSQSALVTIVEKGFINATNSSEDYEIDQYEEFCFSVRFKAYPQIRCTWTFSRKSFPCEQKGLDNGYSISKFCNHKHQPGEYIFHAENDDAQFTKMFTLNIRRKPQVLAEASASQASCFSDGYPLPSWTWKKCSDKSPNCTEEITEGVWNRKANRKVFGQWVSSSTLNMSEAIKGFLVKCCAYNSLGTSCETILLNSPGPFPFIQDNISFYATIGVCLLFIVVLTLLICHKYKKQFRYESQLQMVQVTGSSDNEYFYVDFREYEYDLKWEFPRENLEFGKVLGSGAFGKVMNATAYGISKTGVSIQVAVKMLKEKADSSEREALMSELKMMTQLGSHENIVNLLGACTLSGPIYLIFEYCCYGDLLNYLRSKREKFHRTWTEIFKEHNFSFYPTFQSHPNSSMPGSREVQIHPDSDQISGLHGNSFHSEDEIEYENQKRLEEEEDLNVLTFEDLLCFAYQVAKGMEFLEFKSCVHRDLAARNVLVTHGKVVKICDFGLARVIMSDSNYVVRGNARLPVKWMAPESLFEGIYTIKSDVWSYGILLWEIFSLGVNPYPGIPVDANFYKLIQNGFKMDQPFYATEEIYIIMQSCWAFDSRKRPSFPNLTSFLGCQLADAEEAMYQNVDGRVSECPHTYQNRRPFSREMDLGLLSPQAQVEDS

[11] = target: T2, Serine/threonine-protein kinase 16 (Homo sapiens, UniProt O75716); assay: Inhibition of human wild type partial length STK16 (G11 to I305 residues) expressed in bacterial expression system at 1 uM measured by Kinomescan method
[12] = Volume of distribution at steady state in C57Bl/6 mouse at 10 mg/kg, po or 2 mg/kg, iv; format: ADME, organism-based; settings: in vivo, read-out: Vdss
[13] = target: T2, Serine/threonine-protein kinase 16; assay: Inhibition of human wild type partial length STK16 (G11 to I305) expressed in bacterial expression system by Kinomescan method

Chain of Cyclin-C/Cyclin-dependent kinase 19 (Q9BWU1 whole entry, the tested form may be a part): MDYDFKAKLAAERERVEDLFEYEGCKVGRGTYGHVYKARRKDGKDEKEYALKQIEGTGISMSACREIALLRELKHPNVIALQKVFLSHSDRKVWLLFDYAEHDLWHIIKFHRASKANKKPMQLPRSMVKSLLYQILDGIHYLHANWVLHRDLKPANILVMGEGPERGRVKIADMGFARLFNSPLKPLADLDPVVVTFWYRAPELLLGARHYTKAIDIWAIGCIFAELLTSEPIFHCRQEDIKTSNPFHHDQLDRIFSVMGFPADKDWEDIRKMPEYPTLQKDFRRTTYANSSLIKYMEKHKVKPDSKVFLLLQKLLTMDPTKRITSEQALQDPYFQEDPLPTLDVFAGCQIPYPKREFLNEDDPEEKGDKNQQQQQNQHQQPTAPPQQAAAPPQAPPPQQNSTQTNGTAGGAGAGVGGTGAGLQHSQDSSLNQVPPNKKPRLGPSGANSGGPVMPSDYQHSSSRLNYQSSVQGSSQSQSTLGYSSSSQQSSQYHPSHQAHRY
Chain of Cyclin-C/Cyclin-dependent kinase 19 (P24863 whole entry, further chain, the tested form may be a part): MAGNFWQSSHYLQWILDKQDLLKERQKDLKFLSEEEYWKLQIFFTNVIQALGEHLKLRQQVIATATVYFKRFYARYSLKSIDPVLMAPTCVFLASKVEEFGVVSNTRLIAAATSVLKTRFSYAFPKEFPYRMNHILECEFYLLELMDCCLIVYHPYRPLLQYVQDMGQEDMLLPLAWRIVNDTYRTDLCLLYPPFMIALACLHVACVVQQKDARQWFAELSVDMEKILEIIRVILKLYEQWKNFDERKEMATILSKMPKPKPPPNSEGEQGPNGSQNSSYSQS
Chain of CDK8/Cyclin C (P49336 whole entry, the tested form may be a part): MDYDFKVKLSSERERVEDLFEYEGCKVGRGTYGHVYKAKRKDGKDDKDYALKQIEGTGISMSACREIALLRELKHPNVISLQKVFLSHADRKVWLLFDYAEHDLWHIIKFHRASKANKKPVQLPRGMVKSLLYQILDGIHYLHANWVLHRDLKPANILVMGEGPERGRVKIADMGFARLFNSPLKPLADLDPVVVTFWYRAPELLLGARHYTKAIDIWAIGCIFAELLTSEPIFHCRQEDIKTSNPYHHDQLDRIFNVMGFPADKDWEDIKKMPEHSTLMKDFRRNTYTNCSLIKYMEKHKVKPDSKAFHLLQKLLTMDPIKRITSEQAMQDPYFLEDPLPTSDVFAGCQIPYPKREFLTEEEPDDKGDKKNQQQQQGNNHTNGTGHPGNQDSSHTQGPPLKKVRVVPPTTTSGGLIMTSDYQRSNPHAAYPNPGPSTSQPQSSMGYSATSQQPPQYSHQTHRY
Chain of CDK8/Cyclin C (P24863 whole entry, further chain, the tested form may be a part): as the sequence (P24863 whole entry, further chain, the tested form may be a part) above
T2 sequence (O75716 whole entry, the tested form may be a part): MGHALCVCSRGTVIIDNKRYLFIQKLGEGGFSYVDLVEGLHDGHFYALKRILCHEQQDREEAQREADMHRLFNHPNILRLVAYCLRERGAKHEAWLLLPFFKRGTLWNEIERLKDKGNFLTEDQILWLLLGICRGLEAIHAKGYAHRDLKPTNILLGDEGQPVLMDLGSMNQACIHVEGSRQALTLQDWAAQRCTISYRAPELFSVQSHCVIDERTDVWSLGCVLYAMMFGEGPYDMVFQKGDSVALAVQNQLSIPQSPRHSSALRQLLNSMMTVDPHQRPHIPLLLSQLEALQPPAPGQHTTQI
Chain of Cyclin-dependent kinase 8 (P49336 whole entry): as the sequence (P49336 whole entry, the tested form may be a part) above

SMILES	IC50 (CDK8/Cyclin C) [nM]	IC50 [2] [nM]	also measured
Cc1n[nH]c2ncc(C(=O)N3CCC[C@H]3c3ccc(Cl)cc3)cc12			IC50 [1]: 3 nM
Cn1ncc2cc(-c3cnc4[nH]ccc4c3N3CC4(CNC(=O)C4)C3)ccc21	916	698	
Cn1ncc2cc(-c3cnc4[nH]ccc4c3N3CC4(CCNC4=O)C3)ccc21	538	426	
Cn1ncc2cc(-c3cnc4[nH]cnc4c3N3CCC4(CCNC4=O)CC3)ccc21	10	5	half-life [3]: 5 min; intrinsic clearance (CLint) [4]: 158 µL/min/mg
Cn1ncc2cc(-c3cnc4[nH]ccc4c3N3CCC4(CCNC4=O)CC3)ccc21			half-life [3]: 9 min; intrinsic clearance (CLint) [4]: 78 µL/min/mg
Cn1ncc2cc(-c3cnc4[nH]ccc4c3N3CCC4(CC3)CNC(=O)O4)ccc21	7	6	
Cn1ncc2cc(-c3cnc4[nH]ncc4c3N3CCC4(CCNC4=O)CC3)ccc21	178	214	half-life [3]: 11 min; intrinsic clearance (CLint) [4]: 59 µL/min/mg
Cn1ncc2cc(-c3cnc4[nH]ccc4c3N3CCC4(CC3)CNC4=O)ccc21	6	6	
Cn1ncc2cc(-c3cnc4[nH]cc(Cl)c4c3N3CCC4(CCNC4=O)CC3)ccc21	2	10	half-life [3]: 11 min; intrinsic clearance (CLint) [4]: 64 µL/min/mg
Cn1ncc2cc(-c3cnc4[nH]nc(Cl)c4c3N3CCC4(CCNC4=O)CC3)ccc21	1	2	AUC [5]: 864 ng·h/mL; bioavailability [6]: 8%; half-life [7]: 78 min; Cmax [8]: 104 ng/mL; clearance [9]: 17 mL/min/kg; IC50 [1]: 2 nM; inhibition [10]: Active; inhibition [11]: Active; half-life [3]: 46 min; Vd [12]: 0.8 L/kg; IC50 [13]: 107 nM; intrinsic clearance (CLint) [4]: 15 µL/min/mg
Cn1ncc2cc(-c3cnc4[nH]ccc4c3N3CCC4(CC3)NC(=O)NC4=O)ccc21		2	

Second part, led by results:

IC50 (CDK8/Cyclin C) [nM]	IC50 [2] [nM]	SMILES	also measured
76	68	O=C1NCCC12CCN(c1c(-c3ccn4ccnc4c3)cnc3[nH]ccc13)CC2	
25	80	O=C1NCCC12CCN(c1c(-c3ccc4ncsc4c3)cnc3[nH]ccc13)CC2	
274	1020	O=C1NCCC12CCN(c1c(-c3ccc4ncnn4c3)cnc3[nH]ccc13)CC2	
5	17	O=C1NCCC12CCN(c1c(-c3ccc4[nH]cnc4c3)cnc3[nH]ccc13)CC2	
32	50	Cn1cnc2cc(-c3cnc4[nH]ccc4c3N3CCC4(CCNC4=O)CC3)ccc21	
6	14	O=C1NCCC12CCN(c1c(-c3ccc4scnc4c3)cnc3[nH]ccc13)CC2	
55	29	Cn1ncc2cc(-c3cnc4[nH]ccc4c3N3CCC4(CCNC4=O)C3)ccc21 (stereo not drawn)	
	3	Cn1ncc2cc(-c3cnc4[nH]ccc4c3N3CCC4(CCCNC4=O)CC3)ccc21	
